Columns and labels:
PC12 cells = assay: Neuroprotective effect against Aβ1-42-induced PC12 cell injury, MTT assay; format: cell-based; settings: 25 μM Aβ1-42 for 48 h, compound at 5 and 10 μM
BV-2 cells = assay: Cytotoxicity on BV-2 cells, MTT assay; format: cell-based; settings: 5 and 10 μM
[1] = PAMPA-BBB permeation assay; settings: Table 3
[2] = system: NO production in LPS-induced BV-2 cells; assay: NO release in BV-2 cells and LPS-stimulated BV-2 cells, Griess reaction; format: cell-based; settings: 5 and 10 μM
[3] = system: TNF-α production in LPS-induced BV-2 cells; assay: LPS-induced TNF-α production in BV-2 cells, ELISA; format: cell-based; settings: for Level of TNF-α production: BV-2 cells, 1.0 μg/mL LPS; for inhibition at 5 µM: Mus musculus, BV-2, read-out: Inhibitory rate of TNF-α production
[4] = In vivo PET-CT imaging with [11C]5f in mice; settings: blocker 1.0 mg/kg 5 min before the radiotracer, compared with baseline
huMAO-B = target: T1, huMAO-B (Homo sapiens, UniProt P27338); assay: Kinetic study against huMAO-B, Lineweaver-Burk plots; format: biochemical; settings: 5a at 0.15, 0.3 and 0.6 μM
T1 sequence (P27338 1-520): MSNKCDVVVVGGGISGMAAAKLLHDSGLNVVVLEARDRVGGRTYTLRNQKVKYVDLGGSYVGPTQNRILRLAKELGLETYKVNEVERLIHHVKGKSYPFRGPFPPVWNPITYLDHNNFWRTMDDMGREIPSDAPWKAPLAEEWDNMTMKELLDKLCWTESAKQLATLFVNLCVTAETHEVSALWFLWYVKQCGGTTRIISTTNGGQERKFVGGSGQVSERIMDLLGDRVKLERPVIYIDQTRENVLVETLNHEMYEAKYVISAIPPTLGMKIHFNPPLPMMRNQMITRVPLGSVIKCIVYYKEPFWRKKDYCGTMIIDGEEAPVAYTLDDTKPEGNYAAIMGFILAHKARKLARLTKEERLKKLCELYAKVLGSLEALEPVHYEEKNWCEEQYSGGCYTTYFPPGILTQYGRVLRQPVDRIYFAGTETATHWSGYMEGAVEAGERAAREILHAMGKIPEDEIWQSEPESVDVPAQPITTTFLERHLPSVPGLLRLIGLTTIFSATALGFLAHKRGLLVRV

Structure (SMILES)	Pe [1] [×10⁻⁶ cm/s]	Type of MAO-B inhibition (huMAO-B)	Cell viability, Aβ1-42-induced PC12 cell injury (in words) (PC12 cells)	Cytotoxicity on BV-2 cells (cell viability) (BV-2 cells)	Effect on release of NO in BV-2 cells without LPS [2]	Level of TNF-α production ([3]; compound at 5 μM) [pg/mL]	Level of TNF-α production ([3]; compound at 10 μM) [pg/mL]	inhibition at 5 µM [3] [%]	Radio-uptake decrease of [11C]5f in the brain after pre-treatment (blocking) [4] [%]
CCN(C)C(=O)Oc1cccc([C@H](C)N(C)C)c1 [Rivastigmine, reference compound]	–	–	–	–	–	–	–	–	~35
COc1cc(/C=C/C(=O)N2CCC(Cc3ccccc3)CC2)ccc1OC1CCCCC1 [Compound 5d, (E)-1-(4-benzylpiperidin-1-yl)-3-(4-(cyclohexyloxy)-3-methoxyphenyl)prop-2-en-1-one]	18.2	–	gradually increased in a dose-dependent manner	non-toxic	did not produce an effect on the release of NO	780	460	54.1	–
C#CCOc1ccc(/C=C/C(=O)N2CCC(Cc3ccccc3)CC2)cc1OC [Compound 5a, (E)-1-(4-benzylpiperidin-1-yl)-3-(3-methoxy-4-(prop-2-yn-1-yloxy)phenyl)prop-2-en-1-one]	14.7	competitive	–	non-toxic	did not produce an effect on the release of NO	820	520	51.7	–
COc1ccc(/C=C/C(=O)N2CCc3ccccc3C2)cc1OC [Compound 5f, (E)-1-(3,4-dihydroisoquinolin-2(1H)-yl)-3-(3,4-dimethoxyphenyl)prop-2-en-1-one]	20.4	–	gradually increased in a dose-dependent manner	non-toxic	did not produce an effect on the release of NO	750	455	55.9	~35

Continued, in another order:

Pe [1] [×10⁻⁶ cm/s]	Type of MAO-B inhibition (huMAO-B)	Structure (SMILES)	Cell viability, Aβ1-42-induced PC12 cell injury (in words) (PC12 cells)	Cytotoxicity on BV-2 cells (cell viability) (BV-2 cells)	Effect on release of NO in BV-2 cells without LPS [2]	Level of TNF-α production ([3]; compound at 5 μM) [pg/mL]	Level of TNF-α production ([3]; compound at 10 μM) [pg/mL]	inhibition at 5 µM [3] [%]	Radio-uptake decrease of [11C]5f in the brain after pre-treatment (blocking) [4] [%]
16.7	–	COc1cc(/C=C/C(=O)N2CCc3ccccc3C2)ccc1OC1CCCCC1 [Compound 5h, (E)-3-(4-(cyclohexyloxy)-3-methoxyphenyl)-1-(3,4-dihydroisoquinolin-2(1H)-yl)prop-2-en-1-one]	gradually increased in a dose-dependent manner	non-toxic	did not produce an effect on the release of NO	740	435	56.5	–
12.5	–	C#CCOc1ccc(/C=C/C(=O)N2CCc3ccccc3C2)cc1OC [Compound 5e, (E)-1-(3,4-dihydroisoquinolin-2(1H)-yl)-3-(3-methoxy-4-(prop-2-yn-1-yloxy)phenyl)prop-2-en-1-one]	gradually increased in a dose-dependent manner	non-toxic	did not produce an effect on the release of NO	805	550	52.6	–
